# US20240059673A1, “SUBSTITUTED INDOLE COMPOUNDS” (Gilead Sciences, Inc., priority 2020, published 2024)
# What was measured:
# [1] = molecular target: T1, TLR8 (Homo sapiens, UniProt Q9NR97); assay: TLR8 human PBMC cell-based assay; details: human PBMCs; TLR8 agonist Compound A 800 nM; 6 hours; cytokines (TNFa and IL12p40) in supernatant; Table 2; read-out: TLR-8 EC50
# T1 construct: lymphocytes, monocytes and dendritic cells that express TLR7, TLR8 and TLR9; endogenous in cells; host or cells: cryopreserved human PBMCs from healthy donors
# T1 sequence (Q9NR97 27-1041): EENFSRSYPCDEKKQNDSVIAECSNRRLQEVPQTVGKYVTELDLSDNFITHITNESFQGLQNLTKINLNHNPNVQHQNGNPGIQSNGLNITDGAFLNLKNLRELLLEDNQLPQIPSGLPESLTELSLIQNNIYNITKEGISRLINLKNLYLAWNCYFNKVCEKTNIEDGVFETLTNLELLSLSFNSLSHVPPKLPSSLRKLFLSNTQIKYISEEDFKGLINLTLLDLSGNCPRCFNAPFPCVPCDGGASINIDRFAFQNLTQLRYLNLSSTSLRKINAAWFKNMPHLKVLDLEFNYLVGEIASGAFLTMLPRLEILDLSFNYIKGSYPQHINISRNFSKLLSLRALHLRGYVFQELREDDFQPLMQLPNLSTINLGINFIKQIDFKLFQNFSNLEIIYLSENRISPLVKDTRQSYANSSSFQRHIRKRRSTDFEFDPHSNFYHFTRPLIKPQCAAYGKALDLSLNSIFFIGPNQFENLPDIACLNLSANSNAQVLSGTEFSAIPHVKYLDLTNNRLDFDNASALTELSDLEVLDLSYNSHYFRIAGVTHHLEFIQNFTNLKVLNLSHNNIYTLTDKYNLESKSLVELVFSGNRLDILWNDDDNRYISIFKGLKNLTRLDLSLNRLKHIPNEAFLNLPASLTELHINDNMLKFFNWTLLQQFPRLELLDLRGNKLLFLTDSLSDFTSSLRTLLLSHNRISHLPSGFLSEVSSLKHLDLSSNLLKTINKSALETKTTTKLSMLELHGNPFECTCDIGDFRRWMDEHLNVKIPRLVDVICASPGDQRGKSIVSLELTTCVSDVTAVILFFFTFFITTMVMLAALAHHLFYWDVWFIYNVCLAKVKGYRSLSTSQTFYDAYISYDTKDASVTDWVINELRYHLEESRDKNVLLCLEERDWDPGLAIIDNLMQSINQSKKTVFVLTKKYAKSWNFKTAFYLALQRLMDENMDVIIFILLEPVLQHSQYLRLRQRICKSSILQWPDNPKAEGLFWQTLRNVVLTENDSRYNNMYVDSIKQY
# Description: TLR8 Human Peripheral Blood Mononuclear Cell (PBMC) Cell-Based Assay
# Cryopreserved human PBMCs from healthy donors were thawed and resuspended in RPMI-1640 media with L-glutamine (Corning) supplemented with 10% Fetal Bovine Serum (Hyclone) and 1× Penicillin-Streptomycin (Corning). After counting, the cell density was adjusted to 2 million cells/ml and incubated for 1 hour at 37° C., 5% CO2 for recovery. Following the recovery, the cells were plated by adding 50p per well (100,000 cells) to 384-well cell culture plates (Greiner) containing 250 nl of test antagonists in 100% DMSO per well, in a 10 points dose response in quadruplicates. PBMCs were incubated in the presence of antagonists for one hour at 37° C., 5% CO2 before being stimulated with TLR8 agonist. Compound A (Gilead Sciences, U.S. Pat. No. 10,285,990) was used as the TLR8 agonist at a final concentration of 800 nM. PBMCs were incubated in the presence of antagonist and the TLR8 agonist for an additional 6 hours at 37° C., 5% CO2. At the end of the incubation, the cell culture plates were centrifuged at 500 g for 5 min, and the cell culture supernatant was collected. The level of cytokines (TNFa and IL12p40) in the supernatant was measured by electrochemiluminescence immunoassays (Mesoscale Discovery) following manufacturer's recommended protocols. The level of cytokine measured was plotted against the antagonist concentration and fitted to a sigmoidal function to determine the EC50, which are shown below in Table 2.
# [2] = molecular target: cloned hERG potassium channel (Homo sapiens, UniProt Q12809); assay: hERG FASTPatch assay (QPatch patch clamp); format: cell-based; details: hERG stably expressed in cells; 1, 3, 10 and 30 uM; room temperature; Table 3
# Chain of cloned hERG potassium channel (Q12809 whole entry): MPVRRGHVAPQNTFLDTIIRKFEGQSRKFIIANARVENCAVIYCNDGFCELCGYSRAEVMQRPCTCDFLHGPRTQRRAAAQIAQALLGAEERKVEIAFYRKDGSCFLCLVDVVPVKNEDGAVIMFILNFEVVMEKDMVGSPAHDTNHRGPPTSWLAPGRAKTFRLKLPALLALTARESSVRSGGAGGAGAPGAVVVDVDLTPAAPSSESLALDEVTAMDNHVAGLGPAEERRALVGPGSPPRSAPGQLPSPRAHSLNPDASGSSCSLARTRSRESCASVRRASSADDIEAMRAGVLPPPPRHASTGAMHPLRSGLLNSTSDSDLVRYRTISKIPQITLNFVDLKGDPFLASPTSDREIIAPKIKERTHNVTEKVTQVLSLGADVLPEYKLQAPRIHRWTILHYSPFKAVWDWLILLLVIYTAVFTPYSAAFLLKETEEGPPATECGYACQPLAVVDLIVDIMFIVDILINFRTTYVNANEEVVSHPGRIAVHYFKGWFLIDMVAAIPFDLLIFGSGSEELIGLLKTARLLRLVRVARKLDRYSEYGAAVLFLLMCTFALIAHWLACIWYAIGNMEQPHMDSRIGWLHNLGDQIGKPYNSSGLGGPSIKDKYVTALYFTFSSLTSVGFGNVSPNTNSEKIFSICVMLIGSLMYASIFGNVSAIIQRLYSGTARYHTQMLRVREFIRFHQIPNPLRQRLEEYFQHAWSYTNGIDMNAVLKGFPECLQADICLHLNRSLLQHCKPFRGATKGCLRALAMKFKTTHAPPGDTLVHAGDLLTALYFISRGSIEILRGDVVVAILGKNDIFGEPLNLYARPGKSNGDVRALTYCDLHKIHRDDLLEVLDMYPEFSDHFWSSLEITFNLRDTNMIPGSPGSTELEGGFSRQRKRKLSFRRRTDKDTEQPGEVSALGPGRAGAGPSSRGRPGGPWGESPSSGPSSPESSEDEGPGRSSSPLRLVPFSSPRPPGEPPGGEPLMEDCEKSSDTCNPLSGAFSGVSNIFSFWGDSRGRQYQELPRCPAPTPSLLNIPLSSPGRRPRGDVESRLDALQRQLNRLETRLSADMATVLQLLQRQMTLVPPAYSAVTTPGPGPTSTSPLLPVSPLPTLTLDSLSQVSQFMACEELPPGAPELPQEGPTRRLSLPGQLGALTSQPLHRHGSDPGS
# Description: Human Ether-à-go-go-Related Gene (hERG) Assay
# The FASTPatch® Assay (Charles River) was used to examine the in vitro effects of the compounds provided herein on the cloned hERG potassium channel encoded by the KCNHI2 gene and stably expressed in ITEK293T cells. Vehicle, test and control article formulations were prepared by diluting DMSO stock solutions in TIB-PS (HEPES-buffered physiological saline solution) and were delivered to cells via the QPatch robot pipetting system to a final concentration of 0.3% DMSO. Test compound final concentrations of 1, 3, 10 and 30 uM were applied to cells (n≥3, where n=the number of cells/concentration) in ascending order in at least three minute intervals separated by solution exchange. The positive control, 50 nM cisparide, was applied in the same manner. Cell membrane currents were recorded at room temperature with up to 48 parallel patch clamp amplifiers in the QPatch HT® or QPatch HTX® system, and only cells with validated whole-cell recordings (seal resistance ≥200 MQ and leak current ≤25% channel current) were used. Onset and block of hERG current was measured using a stimulus voltage pattern consisting of a 500 ms prepulse to −40 mV, a 2-second activating pulse to +40 mV, followed by a 2-second test pulse to −40 mV. The pulse pattern was repeated continuously at 10-second intervals from a holding potential of −80 mV. % Block={1−1/[1+([Test]/IC50)^N]}*100% Where [Test] is the concentration of test article, IC50 is the concentration of the test article producing half-maximal inhibition, N is the Hill coefficient and % Block is the percentage of current inhibited at each concentration of the test article. Nonlinear least squares fits will be solved with the Solver add-in for Excel 2000 or later (Microsoft, Redmon, WA). TurboSol analysis for test compound solubility was performed for each concentration tested using a Nephelostar reader measuring light scatter from a 635 nm laser source. Based on validation experiments, light scatter above four times the background level was considered an indication of the presence of particles in suspension.
# The hERG IC50 values are provided below in Table 3.
Structure (SMILES),EC50 [1],IC50 [2]
CCc1c(-c2ccc(N3CCNCC3)nc2)[nH]c2cc(-c3cc(C)c4ncnn4c3)ccc12 [Example 23],34.7 nM,–
"Cc1cc(-c2[nH]c3ccc(-c4ccc(N5CCNCC5)nc4)cc3c2C(C)C)cc(C)n1 [Example A, reference compound]",–,4500 nM
"Cc1cc(-c2[nH]c3ccc(-c4ccc(N5CCNCC5)nc4)cc3c2C(C)C)cn2ncnc12 [Example B, reference compound]",–,5100 nM
"Cc1cc(-c2ccc3c(C)c(-c4cnc(N5CCNCC5)nc4)[nH]c3c2)cc(C)n1 [Example 1, 6-(2,6-dimethylpyridin-4-yl)-3-methyl-2-(2-(piperazin-1-yl)pyrimidin-5-yl)-1H-indole]",318 nM,–
"Cc1cc(-c2ccc3c(C)c(-c4ccc(N5CCNCC5)nc4)[nH]c3c2)cc(C)n1 [Example 2, 6-(2,6-dimethylpyridin-4-yl)-3-methyl-2-(6-(piperazin-1-yl)pyridin-3-yl)-1H-indole]",307 nM,7000 nM
Cc1c(-c2ccc(N3CCNCC3)nc2)[nH]c2cc(-c3ccc(C#N)c4ncccc34)ccc12 [Example 7],21.5 nM,–
Cc1c(-c2ccc(N3CCNCC3)nc2)[nH]c2cc(-c3cc(C)c4ncnn4c3)ccc12 [Example 4],18.2 nM,15500 nM
